Assay [1] concerns the target T1, F876L mutant Androgen Receptor (AR-F876L) (Homo sapiens (Human), UniProt P10275, F877L). Description: LNCaP-AR-F876L AG reporter assay (agonist mode). The format is cell-based. To be noted: for EC50: pEC50 = −Log10(EC50 in Molar), read-out: LNCaP-AR-F876L AG pEC50 (converted); for Emax: read-out: LNCaP-AR-F876L AG MAX % Stim. (In general: In a reporter assay the amount or activity of a reporter protein is the signal.)

Assay [2] addresses T2, wild-type Androgen Receptor (AR-wt) (Homo sapiens (Human), UniProt P10275). Description: LNCaP-AR-wt AG reporter assay (agonist mode). To be noted: for EC50: pEC50 = −Log10(EC50 in Molar), read-out: LNCaP-AR-wt AG pEC50 (converted); for Emax: read-out: LNCaP-AR-wt AG MAX % Stim. It is filed as cell-based.
The target in assay [3] is T1, F876L mutant Androgen Receptor (AR-F876L). Nature of the assay: LNCaP-AR-F876L ANT reporter assay (antagonist mode). The format is cell-based. To be noted: for IC50: pIC50 = −Log10(IC50 in Molar), read-out: LNCaP-AR-F876L ANT pIC50 (converted); for Emax: read-out: LNCaP-AR-F876L ANT MAX % Inh.
The subject of another assay is rGABA-gated Cl− channel. Description: GABA-Gated Cl Channel Antagonist Radioligand Binding Assay. On the set-up: species or system rat. To be noted: 10 μM single point, [35S]-TBPS, cerebral cortex membrane homogenates. In a few lines: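 Rat cerebral cortex membranes (120 μg protein) incubated 120 min at 22° C with 3 nM […] in 50 mM Na2HPO4/KH2PO4 pH 7.4, 500 mM NaCl; nonspecific binding defined with 20 μM picrotoxinin. Bound label counted after filtration; values are percent inhibition of specific binding at 10 μM compound.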

In assay [4] the target is T2, wild-type Androgen Receptor (AR-wt). Nature of the assay: LNCaP-AR-wt ANT reporter assay (antagonist mode). The format is cell-based. To be noted: for IC50: pIC50 = −Log10(IC50 in Molar), read-out: LNCaP-AR-wt ANT pIC50 (converted); for Emax: read-out: LNCaP-AR-wt ANT MAX % Inh.
The mark [5] stands for this setting: maximum % stimulation (agonist response) over the tested concentration range.
Where [6] appears, read: maximum % inhibition of R1881 control response over the tested concentration range.
Where [7] appears, read: agonist mode, maximum % stimulation over tested concentration range.
[8] abbreviates: antagonist mode, maximum % inhibition of R1881 control response over tested concentration range.

Some results are limits rather than exact numbers.

T2 sequence (P10275 whole entry): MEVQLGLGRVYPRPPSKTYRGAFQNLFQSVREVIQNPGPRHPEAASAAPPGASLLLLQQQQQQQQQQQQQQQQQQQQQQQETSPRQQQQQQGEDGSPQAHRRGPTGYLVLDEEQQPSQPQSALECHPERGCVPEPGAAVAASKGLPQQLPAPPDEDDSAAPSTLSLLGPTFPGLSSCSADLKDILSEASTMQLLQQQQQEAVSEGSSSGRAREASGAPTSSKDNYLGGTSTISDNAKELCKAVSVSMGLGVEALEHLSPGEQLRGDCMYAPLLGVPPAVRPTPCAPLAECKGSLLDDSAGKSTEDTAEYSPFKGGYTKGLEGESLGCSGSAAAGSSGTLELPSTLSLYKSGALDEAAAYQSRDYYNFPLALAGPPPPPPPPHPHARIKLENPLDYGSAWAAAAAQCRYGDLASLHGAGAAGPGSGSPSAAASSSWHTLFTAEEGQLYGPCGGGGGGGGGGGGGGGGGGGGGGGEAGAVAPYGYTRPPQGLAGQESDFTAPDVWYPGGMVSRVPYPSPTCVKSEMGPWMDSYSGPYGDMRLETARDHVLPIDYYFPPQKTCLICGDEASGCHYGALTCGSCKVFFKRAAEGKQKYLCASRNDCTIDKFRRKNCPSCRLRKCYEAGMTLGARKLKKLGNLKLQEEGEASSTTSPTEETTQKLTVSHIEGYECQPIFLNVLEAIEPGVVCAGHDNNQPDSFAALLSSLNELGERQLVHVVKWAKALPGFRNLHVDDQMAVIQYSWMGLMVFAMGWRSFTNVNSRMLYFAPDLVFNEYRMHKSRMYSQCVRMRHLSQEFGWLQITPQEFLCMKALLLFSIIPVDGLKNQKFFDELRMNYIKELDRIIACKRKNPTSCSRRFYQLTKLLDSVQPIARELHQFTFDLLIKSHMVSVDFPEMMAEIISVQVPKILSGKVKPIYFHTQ
T1 sequence (P10275 whole entry F877L): as the sequence (P10275 whole entry) above, with F877L counted along it

Consider `CN1CCC(Cn2cc3cc(N4C(=S)N(c5cnc(C#N)c(C(F)(F)F)c5)C(=O)C45CCC5)ccc3n2)CC1` [Cpd 129, 5-[8-[2-[(1-methyl-4-piperidyl)methyl]indazol-5-yl]-5-oxo-7-thioxo-6,8-diazaspiro[3.4]octan-6-yl]-3-(trifluoromethyl)pyridine-2-carbonitrile], for which the EC50 in assay [1] (agonist mode) and in assay [2] (agonist mode) was over 15100 nM in each case. The Emax was found to be 0.1% in assay [1] (setting [5]), 0.9% in assay [2] (setting [5]), 100% in assay [3] (setting [6]) and 102% in assay [4] (setting [6]). The IC50 was 36.3 nM in assay [3] (antagonist mode) and 77.6 nM in assay [4] (antagonist mode). Moreover, the “rGABA-gated Cl− channel % inh @10 μM” value with rGABA-gated Cl− channel turned out to be 64.0%.

On to `N#Cc1ncc(N2C(=O)C3(CCC3)N(c3ccc(C4CNCCO4)cc3)C2=S)cc1C(F)(F)F` (stereo not drawn) [Cpd 243, 5-[8-(4-morpholin-2-ylphenyl)-5-oxo-7-thioxo-6,8-diazaspiro[3.4]octan-6-yl]-3-(trifluoromethyl)pyridine-2-carbonitrile], for which the Emax in assay [1] (setting [7]) turned out to be 0.7%; in assay [2] (setting [7]) it was 0.2%; in assay [3] (setting [8]), 100%; in assay [4] (setting [8]), 101%. Further, the EC50 in assay [1] (agonist mode) and in assay [2] (agonist mode) was over 15100 nM in each case. The values for the IC50 in assay [3] (antagonist mode) and in assay [4] (antagonist mode) were 347 nM and 1620 nM, respectively. Further, the “rGABA-gated Cl− channel % inh @10 μM” value in the assay with rGABA-gated Cl− channel is reported as 57.2%.

For `N#Cc1ncc(N2C(=O)C3(CCC3)N(c3ccc(O[C@H]4CCN[C@H](CO)C4)cc3)C2=S)cc1C(F)(F)F` (racemic) [Cpd 222, 5-[8-(2SR,4SR)[4-[[2-(hydroxymethyl)-4-piperidyl]oxy]phenyl]-5-oxo-7-thioxo-6,8-diazaspiro[3.4]octan-6-yl]-3-(trifluoromethyl)pyridine-2-carbonitrile], the Emax in assay [1] (setting [7]) is 0.2%; in assay [2] (setting [7]), 2.3%; in assay [3] (setting [8]), 99.6%; in assay [4] (setting [8]) it was 99.6%. For the same compound, the EC50 in assay [1] (agonist mode) and in assay [2] (agonist mode) was over 15100 nM in each case. The IC50 in assay [3] (antagonist mode) is 81.3 nM; in assay [4] (antagonist mode), 129 nM. Further, the “rGABA-gated Cl− channel % inh @10 μM” value in the assay with rGABA-gated Cl− channel is on record as 61.4%.

Regarding `N#Cc1ncc(N2C(=O)C3(CCC3)N(c3ccc(OCCN4CCC5(CCOC5)CC4)cc3)C2=S)cc1C(F)(F)F` [Cpd 82, 5-[8-[4-[2-(3-oxa-8-azaspiro[4.5]decan-8-yl)ethoxy]phenyl]-5-oxo-7-thioxo-6,8-diazaspiro[3.4]octan-6-yl]-3-(trifluoromethyl)pyridine-2-carbonitrile], the EC50 in assay [1] (agonist mode) and in assay [2] (agonist mode) was over 15100 nM each time. The Emax in assay [1] (setting [5]) was 0.8%; in assay [2] (setting [5]), 0.4%; in assay [3] (setting [6]), 97.5%; in assay [4] (setting [6]) it was 98.7%. In addition, the results for the IC50 in assay [3] (antagonist mode) and in assay [4] (antagonist mode) were 100 nM and 155 nM, respectively. Besides, in the assay with rGABA-gated Cl− channel, the “rGABA-gated Cl− channel % inh @10 μM” value was 36.7%.

In the case of `N#Cc1ncc(N2C(=O)C3(CCC3)N(c3ccc(OC4CCCO4)cc3)C2=S)cc1C(F)(F)F` (stereo not drawn) [Cpd 111, 5-[5-oxo-8-(4-tetrahydrofuran-2-yloxyphenyl)-7-thioxo-6,8-diazaspiro[3.4]octan-6-yl]-3-(trifluoromethyl)pyridine-2-carbonitrile], the EC50 in assay [1] (agonist mode) and in assay [2] (agonist mode) was over 15100 nM each time. Also, the Emax is 0.4% in assay [1] (setting [5]), 0.8% in assay [2] (setting [5]), 101% in assay [3] (setting [6]) and 101% in assay [4] (setting [6]). For the same compound, the IC50 is 117 nM in assay [3] (antagonist mode) and 132 nM in assay [4] (antagonist mode). Besides, the “rGABA-gated Cl− channel % inh @10 μM” value in the assay with rGABA-gated Cl− channel worked out at 2.8%.

Consider `CN1CCC(Oc2ccc(N3C(=S)N(c4cnc(C#N)c(C(F)(F)F)c4)C(=O)C34CCC4)cc2)CC1=O` (racemic) [Cpd 189, (R,S)-5-[8-[4-[(1-methyl-2-oxo-4-piperidyl)oxy]phenyl]-5-oxo-7-thioxo-6,8-diazaspiro[3.4]octan-6-yl]-3-(trifluoromethyl)pyridine-2-carbonitrile], for which the Emax in assay [1] (setting [7]) was 1.7%; in assay [2] (setting [7]), 0%; in assay [3] (setting [8]), 99.1%; in assay [4] (setting [8]), 100%. Besides, the EC50 in assay [1] (agonist mode) and in assay [2] (agonist mode) was over 15100 nM throughout. The IC50 is 81.3 nM in assay [3] (antagonist mode) and 69.2 nM in assay [4] (antagonist mode). Besides, the “rGABA-gated Cl− channel % inh @10 μM” value in the assay on rGABA-gated Cl− channel was 90.4%.

For `N#Cc1ncc(N2C(=O)C3(CCC3)N(c3ccc(OC4CCNC(=O)C4)cc3)C2=S)cc1C(F)(F)F` (racemic) [Cpd 195, (R,S)-5-[5-oxo-8-[4-[(2-oxo-4-piperidyl)oxy]phenyl]-7-thioxo-6,8-diazaspiro[3.4]octan-6-yl]-3-(trifluoromethyl)pyridine-2-carbonitrile], the Emax in assay [1] (setting [7]) was found to be 0.6%; in assay [2] (setting [7]) it was 0%; in assay [3] (setting [8]) it was 100%; in assay [4] (setting [8]), 102%. Moreover, the EC50 in assay [1] (agonist mode) and in assay [2] (agonist mode) was over 15100 nM throughout. The results for the IC50 in assay [3] (antagonist mode) and in assay [4] (antagonist mode) were 174 nM and 186 nM, respectively. The “rGABA-gated Cl− channel % inh @10 μM” value in the assay on rGABA-gated Cl− channel was 94.2%.

Turning to `CN1CC2(CC(Oc3ccc(N4C(=S)N(c5cnc(C#N)c(C(F)(F)F)c5)C(=O)C45CCC5)cc3)C2)C1` [Cpd 97, 5-[8-[4-[(6-methyl-6-azaspiro[3.3]heptan-2-yl)oxy]phenyl]-5-oxo-7-thioxo-6,8-diazaspiro[3.4]octan-6-yl]-3-(trifluoromethyl)pyridine-2-carbonitrile], the EC50 in assay [1] (agonist mode) and in assay [2] (agonist mode) was over 15100 nM each time. The Emax came out at 0.2% in assay [1] (setting [5]), 0% in assay [2] (setting [5]), 99.9% in assay [3] (setting [6]) and 102% in assay [4] (setting [6]). The results for the IC50 in assay [3] (antagonist mode) and in assay [4] (antagonist mode) were 25.1 nM and 55 nM, respectively. For the same compound, in the assay with rGABA-gated Cl− channel, the “rGABA-gated Cl− channel % inh @10 μM” value came out at 4.0%.

Turning to `Cc1cc(N2C(=O)C3(CCC3)N(c3ccc(OC4CCN(C5CC5)CC4)cc3)C2=S)cnc1C#N` [Cpd 35, 5-[8-[4-[(1-cyclopropyl-4-piperidyl)oxy]phenyl]-5-oxo-7-thioxo-6,8-diazaspiro[3.4]octan-6-yl]-3-methyl-pyridine-2-carbonitrile], the EC50 in assay [1] (agonist mode) and in assay [2] (agonist mode) was over 15100 nM each time. Besides, the Emax in assay [1] (setting [5]) stood at 0.3%; in assay [2] (setting [5]), 0.2%; in assay [3] (setting [6]), 99.5%; in assay [4] (setting [6]), 100%. Also, the IC50 in assay [3] (antagonist mode) is 372 nM; in assay [4] (antagonist mode), 912 nM. Also, in the assay with rGABA-gated Cl− channel, the “rGABA-gated Cl− channel % inh @10 μM” value is given as 49.9%.

As to `CCOC(=O)N1CCN(Cc2ccc(N3C(=S)N(c4cnc(C#N)c(C(F)(F)F)c4)C(=O)C34CCC4)cc2)CC1` [Cpd 55, Ethyl 4-[[4-[6-[6-cyano-5-(trifluoromethyl)-3-pyridyl]-5-oxo-7-thioxo-6,8-diazaspiro[3.4]octan-8-yl]phenyl]methyl]piperazine-1-carboxylate], the EC50 in assay [1] (agonist mode) and in assay [2] (agonist mode) was over 15100 nM in each case. Further, the Emax is 0.5% in assay [1] (setting [5]), 0.6% in assay [2] (setting [5]), 101% in assay [3] (setting [6]) and 104% in assay [4] (setting [6]). Further, the IC50 in assay [3] (antagonist mode) was 40.7 nM; in assay [4] (antagonist mode) it was 72.4 nM. Moreover, the “rGABA-gated Cl− channel % inh @10 μM” value in the assay on rGABA-gated Cl− channel is 100.0%.
